What was measured:
[1] = tested on: dispersed rat pituitary cells; test: LH secretion by four-day-old primary culture of dispersed rat pituitary cells over 4 hours, radioimmunoassay for rat LH; assay type: cell-based; conditions: for NANOGRAMS OF LH SECRETED: Table I, 4-hour period; for relative potency, compared to LRF: in vitro LH release, confidence limits in parentheses
Experimental: The peptides prepared in the foregoing Example I are assayed in vitro using a four-day-old primary culture of dispersed rat pituitary cells and compared with LRF. The levels of LH secreted over a 4-hour period in response to the application of peptides are assayed by specific radioimmunoassay for rat LH. The results of testing are expressed in Table I herebelow: […]

[2] = tested on: dispersed rat pituitary cells; test: as above; assay type: cell-based; conditions: Table II, 4-hour period
[3] = in vivo test of agonistic potency compared with LRF
Experimental: The effectiveness of the peptide compositions prepared in Examples I and II is also tested in vivo, and the relative agonistic potencies of peptides determined in the in vitro assays reported above correlate well with the potencies obtained from in vivo tests.

| Compound | NANOGRAMS OF LH SECRETED ([1]; 0.1 nM peptide) [nanograms] | NANOGRAMS OF LH SECRETED ([1]; 0.3 nM peptide) [nanograms] | NANOGRAMS OF LH SECRETED ([1]; 1.0 nM peptide) [nanograms] | NANOGRAMS OF LH SECRETED ([1]; 3.0 nM peptide) [nanograms] | NANOGRAMS OF LH SECRETED ([2]; 0.3 nM peptide) [nanograms] | NANOGRAMS OF LH SECRETED ([2]; 1.0 nM peptide) [nanograms] | NANOGRAMS OF LH SECRETED ([2]; 3.0 nM peptide) [nanograms] | relative potency, compared to LRF [1] | relative potency, compared to LRF ([1]; Pro^9 -NEt]-LRF) | potency compared with LRF when tested in vivo [3] | NANOGRAMS OF LH SECRETED ([2]; 0.003 nM peptide) [nanograms] | NANOGRAMS OF LH SECRETED ([2]; 0.01 nM peptide) [nanograms] | NANOGRAMS OF LH SECRETED ([2]; 0.03 nM peptide) [nanograms] | NANOGRAMS OF LH SECRETED ([1]; 0.003 nM peptide) [nanograms] | NANOGRAMS OF LH SECRETED ([1]; 0.01 nM peptide) [nanograms] | NANOGRAMS OF LH SECRETED ([1]; 0.03 nM peptide) [nanograms] | relative potency, compared to LRF ([1]; listed as [D-His^6 (im-Bzl)]-LRF) |
| --- | --- | --- | --- | --- | --- | --- | --- | --- | --- | --- | --- | --- | --- | --- | --- | --- | --- |
| CC(C)C[C@H](NC(=O)CNC(=O)[C@H](Cc1ccc(O)cc1)NC(=O)[C@H](CO)NC(=O)[C@H](Cc1c[nH]c2ccccc12)NC(=O)[C@H](Cc1c[nH]cn1)NC(=O)[C@@H]1CCC(=O)N1)C(=O)N[C@@H](CCCNC(=N)N)C(=O)N1CCC[C@H]1C(=O)NCC(N)=O [LRF, p-Glu-His-Trp-Ser-Tyr-Gly-Leu-Arg-Pro-Gly-NH2, reference compound] | 1255 | 1767 | 2167 | 2867 | 631 | 1001 | 1496 | – | – | – | – | – | – | – | – | – | – |
| [D-His^6 (im-Bzl), Pro^9 -NEt]-LRF [Example II] | – | – | – | – | – | – | – | 217(57-952) times that of LRF | more than 200 times that of LRF | very significantly more potent than LRF | 895 | 1256 | 2008 | – | – | – | – |
| p-Glu-His-Trp-Ser-Tyr-D-His(im-Bzl)-Leu-Arg-Pro-Gly-NH2 [Example I] | 2225 | 2667 | – | – | – | – | – | 12(5.8-24) times that of LRF | – | very significantly more potent than LRF | – | – | – | 885 | 1345 | 2150 | about 12 times that of LRF |

Reference: patent US4244946A, “Water-soluble peptides affecting gonadal function” (The Salk Institute for Biological Studies, priority 1979, dated 1981)
